From patent CN112159318A, “一种具有抗病毒活性的大叶桉酮及其制备方法和用途” (Kunming Institute of Botany of CAS, priority 2020, dated 2021)
Entries after “also recorded” stand apart in the source; their conditions may differ.

Assays:
Zika virus [寨卡病毒] [1] = details: cited from earlier work
[2] = target: NS5 methyltransferase [NS5甲基转移酶]; details: NS5 methyltransferase inhibitors; cited from earlier work
[3] = system: viral RNA polymerase [病毒RNA聚合酶]; details: adenosine analogue; cited from earlier work
ZIKV MR766 = experiment: Plaque assay, ZIKV MR766 in Vero cells; assay type: cell-based; details: Zika virus, 96 h
Zika virus [寨卡病毒] [4] = details: cited from earlier work; remark: listed apart in the source
ZIKV SZ-WIV01 [5] = experiment: Plaque assay, ZIKV SZ-WIV01 in Vero cells; assay type: cell-based, Zika virus; details: for EC50: Zika virus, Vero, 96 h
[6] = system: ZIKV MR766 E protein [ZIKV E蛋白]; experiment: Western blot of ZIKV E protein expression; assay type: cell-based, Zika virus; details: 48 h
[7] = MTT cytotoxicity in Vero cells; assay type: cell-based, African green monkey; details: monkey
Vero cells [Vero细胞] = experiment: MTT cytotoxicity in Vero cells; assay type: cell-based, African green monkey; details: Vero CC50 relative to anti-ZIKV EC50; strain not stated
ZIKV SZ-WIV01 [8] = experiment: Time-of-addition assay, qRT-PCR, Vero cells; assay type: cell-based, Zika virus; details: ZIKV SZ-WIV01 MOI=1, 50 μM
ZIKV SZ-WIV01 [9] = experiment: Adsorption (binding) assay, qRT-PCR of ZIKV on Vero cell surface; assay type: cell-based, Zika virus; details: ZIKV SZ-WIV01 MOI=1, 50 μM, 4°C, 1 h, vs DMSO
ZIKV [10] = experiment: qRT-PCR of ZIKV replication in Huh-7 cells; assay type: cell-based, Zika virus; details: human Huh-7 cells, 0.4-50 μM
[11] = target: T1, RNA-dependent RNA polymerase (RdRp) of ZIKV NS5 [ZIKV的RNA依赖的RNA聚合酶(RdRp)] (Zika virus, UniProt Q32ZE1); experiment: ZIKV NS5 RdRp activity, Gluc reporter in NS5-expressing HEK-293T cells; assay type: cell-based; details: 24 h
T1 construct: 1μg ZIKV NS5载体共转染到HEK-293T细胞中; expressed in transfected cells; host or cells: HEK-293T

ZIKV SZ-WIV01 [12] = experiment: Immunofluorescence of ZIKV E protein positive Vero cells; assay type: cell-based, Zika virus; details: ZIKV SZ-WIV01 MOI=1, 50 μM, 48 h, vs DMSO
ZIKV SZ-WIV01 [13] = experiment: qRT-PCR of ZIKV RNA in supernatant of infected Vero cells; assay type: cell-based, Zika virus; details: ZIKV SZ-WIV01 500 PFU, 3.125-25 μM, 48 h
[14] = system: Gluc luciferase [荧光素酶Gluc]; experiment: Gluc activity in HEK-293T cells expressing only Gluc (counter-test); assay type: cell-based
AXL = experiment: Flow cytometry of AXL expression on Vero cell surface; assay type: cell-based, African green monkey; details: Vero cells, 50 μM, 37°C 1 h, then ZIKV SZ-WIV01 MOI=1, 1 h
ZIKV [15] = experiment: qRT-PCR of ZIKV replication in A549 cells; assay type: cell-based, Zika virus; details: human A549 cells, 0.4-50 μM
ZIKV [16] = experiment: Internalization of ZIKV into host cells; assay type: cell-based, Zika virus
ZIKV NS5 = experiment: Western blot of NS5 expression in HEK-293T cells; assay type: cell-based, Zika virus; details: 24 h

T1 sequence (Q32ZE1 2517-3419): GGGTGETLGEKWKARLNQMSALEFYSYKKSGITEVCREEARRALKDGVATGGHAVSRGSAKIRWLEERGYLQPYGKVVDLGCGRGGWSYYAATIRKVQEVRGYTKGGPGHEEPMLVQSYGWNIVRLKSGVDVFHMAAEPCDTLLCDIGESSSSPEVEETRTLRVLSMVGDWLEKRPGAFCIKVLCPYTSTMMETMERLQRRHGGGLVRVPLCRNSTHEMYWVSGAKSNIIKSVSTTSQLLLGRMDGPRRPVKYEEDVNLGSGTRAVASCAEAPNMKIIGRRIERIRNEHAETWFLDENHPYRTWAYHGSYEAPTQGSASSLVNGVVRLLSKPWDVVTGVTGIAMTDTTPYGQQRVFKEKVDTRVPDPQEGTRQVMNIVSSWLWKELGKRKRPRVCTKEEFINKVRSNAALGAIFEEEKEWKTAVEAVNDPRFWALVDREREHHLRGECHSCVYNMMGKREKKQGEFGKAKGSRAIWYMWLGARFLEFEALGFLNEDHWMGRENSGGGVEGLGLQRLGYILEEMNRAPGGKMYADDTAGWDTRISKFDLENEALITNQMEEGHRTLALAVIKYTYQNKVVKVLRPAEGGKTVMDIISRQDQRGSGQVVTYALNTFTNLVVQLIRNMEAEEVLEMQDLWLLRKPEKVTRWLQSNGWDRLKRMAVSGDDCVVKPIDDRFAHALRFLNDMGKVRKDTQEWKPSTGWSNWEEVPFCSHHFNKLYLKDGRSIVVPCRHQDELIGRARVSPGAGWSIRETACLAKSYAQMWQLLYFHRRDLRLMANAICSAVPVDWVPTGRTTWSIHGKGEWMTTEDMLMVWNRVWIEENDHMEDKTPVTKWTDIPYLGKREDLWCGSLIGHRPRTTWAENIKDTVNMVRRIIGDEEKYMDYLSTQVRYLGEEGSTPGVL

In the case of `Cc1ccc(C(=O)Nc2ccc(S(=O)(=O)O)c3cc(S(=O)(=O)O)cc(S(=O)(=O)O)c23)cc1NC(=O)c1cccc(NC(=O)Nc2cccc(C(=O)Nc3cc(C(=O)Nc4ccc(S(=O)(=O)O)c5cc(S(=O)(=O)O)cc(S(=O)(=O)O)c45)ccc3C)c2)c1` [苏拉明], the “effect on Zika virus binding and attachment to host cells” value (Zika virus [寨卡病毒] [1]) is listed as “可以影响寨卡病毒的结合以及与宿主细胞的附着”.
For `Nc1ncnc2c1ncn2[C@@H]1O[C@H](CSCC[C@H](N)C(=O)O)[C@@H](O)[C@H]1O` [S-腺苷基-同型半胱氨酸, S-adenosyl-L-homocysteine], the IC50 [2] is given as 0.43 µM.
For `Nc1ncnc2c([C@@H]3N[C@H](CO)[C@@H](O)[C@H]3O)c[nH]c12` [BCX4430], the “inhibition of viral RNA polymerase function” value [3] is given as “能抑制病毒RNA聚合酶的功能”.
In the case of `NC(=O)c1ncn([C@@H]2O[C@H](CO)[C@@H](O)[C@H]2O)n1` [利巴韦林, reference compound], the EC50 (ZIKV MR766) is listed as 58.8 ± 1.86 µM, the anti-Zika virus activity (Zika virus [寨卡病毒] [4]) is listed as “具有抗寨卡病毒活性” and the EC50 (ZIKV SZ-WIV01 [5]) is listed as 47.5 ± 4.73 µM.
For `COc1cc(O)c(C(CC(C)C)c2c(O)cc(OC)c(C(=O)C(C)C)c2O)c(O)c1C(=O)C(C)C` [大叶桉酮G, Eucalyprobusone G], the “expression of ZIKV E protein (Western blot)” value ([6]; ZIKV MR766, 2 μM or higher) was “几乎完全抑制了E蛋白的表达”, the “expression of ZIKV E protein (Western blot), concentration dependence” value ([6]; ZIKV MR766, 0.08-50 μM) was “随着大叶桉酮G浓度的增加,ZIKV E蛋白的表达逐渐被抑制” and the selectivity ratio ([7]; vero cells, Vero CC50 relative to anti-ZIKV EC50, strain not stated, read-out: therapeutic index) was > 49.5. For the same molecule, the CC50 at 96 h ([7]; MTT, Vero cells, 4 days) was > 500 µM, the therapeutic index (Vero cells [Vero细胞]) was > 49.5 and the EC50 (ZIKV MR766) was 0.43 ± 0.08 µM. The “stage of viral life cycle acted on” value (ZIKV SZ-WIV01 [8]; added 0-12 h post infection) was “主要抑制ZIKV RNA的合成”, the “inhibition of ZIKV replication when added 6 h post infection” value (ZIKV SZ-WIV01 [8]; supernatant at 24 h) was “显著抑制了ZIKV的复制” and the “ZIKV adsorption (binding) to host cells” value (ZIKV SZ-WIV01 [9]) was “抑制了ZIKV的吸附; also recorded: 抑制ZIKV与宿主细胞的结合”. The “inhibition of ZIKV replication” value (ZIKV [10]) was “以剂量依赖型方式抑制两种人源细胞中ZIKV的复制”, the “inhibition of NS5-induced increase in Gluc activity” value ([11]; 10 μmol/L) was “几乎完全抑制” and the “inhibition of Gluc activity in NS5-expressing cells (RdRp activity)” value ([11]; 1.25-10 μM) was “以剂量依赖性的方式抑制了表达NS5的细胞中的荧光素酶Gluc的活性; also recorded: 可以抑制NS5中RdRp结构域的活性; also recorded: 呈剂量依赖型方式降低Gluc的活性”. The “ZIKV E protein positive cells (immunofluorescence)” value (ZIKV SZ-WIV01 [12]) was “ZIKV E蛋白阳性细胞显著减少”, the “inhibition of ZIKV RNA production” value (ZIKV SZ-WIV01 [13]) was “以剂量依赖性的方式抑制ZIKV RNA的产生” and the “effect on Gluc activity in cells expressing only Gluc” value [14] was “对荧光素酶的活性没有影响; also recorded: 对Gluc的活性没有影响”. The AXL expression (AXL) was “不影响AXL的表达”, the “inhibition of ZIKV replication” value (ZIKV [15]) was “以剂量依赖型方式抑制两种人源细胞中ZIKV的复制” and the “internalization of ZIKV into host cells” value (ZIKV [16]) was “抑制ZIKV与宿主细胞的结合和内化”. For the same molecule, the “effect on NS5 expression” value (ZIKV NS5) was “不影响NS5的表达; also recorded: 对NS5的表达没有影响”, the “inhibition of ZIKV-induced plaque formation” value (ZIKV SZ-WIV01 [5]; Vero cells, 3.125-25 μM, vs DMSO) was “以剂量依赖方式抑制ZIKV感染诱导的噬斑形成” and the EC50 (ZIKV SZ-WIV01 [5]) was 10.1 ± 3.84 µM. The “anti-Zika virus activity compared with positive control ribavirin” value (ZIKV SZ-WIV01 [5]; plaque assay, ZIKV SZ-WIV01 and ZIKV MR766) was “优于阳性对照药利巴韦林; also recorded: 显著高于阳性对照药利巴韦林”.
For `COc1c(C)c2c(c(O)c1C/C=C(\C)CCC(=O)O)C(=O)OC2` [麦考酚酸], the anti-Zika virus activity (Zika virus [寨卡病毒] [4]) is listed as “具有抗寨卡病毒活性”.
For `Nc1ncnc2c1ncn2[C@@H]1O[C@H](C[C@@H](N)CC[C@H](N)C(=O)O)[C@@H](O)[C@H]1O` [西奈芬净, Sinefungin], the IC50 [2] is listed as 1.18 µM.
In the case of `Cc1c(-c2ccc(-c3ccccc3F)cc2)nc2ccc(F)cc2c1C(=O)O` [Brequinar], the anti-Zika virus activity (Zika virus [寨卡病毒] [4]) is listed as “具有抗寨卡病毒活性”.
